Two compounds from paper PMC5333544, “Purification and biochemical characterization of recombinant Persicaria minor β-sesquiphellandrene synthase” (PeerJ, 2017) can be followed below.

The structures appear in SMILES notation.

The target in assay [1] is T1, PmSTS_Δ24 (Persicaria minor, UniProt I6XZ73).
T1 construct: N-terminal 24 residues removed from the 562-residue protein; N-terminal His6 tag (pET28b), no cleavage told; E. coli BL21 (DE3); PCR primer codes for Met-AGFKPS start; monomer stated for the full-length enzyme
T1 sequence (I6XZ73 entry or part of it, stated change not applied): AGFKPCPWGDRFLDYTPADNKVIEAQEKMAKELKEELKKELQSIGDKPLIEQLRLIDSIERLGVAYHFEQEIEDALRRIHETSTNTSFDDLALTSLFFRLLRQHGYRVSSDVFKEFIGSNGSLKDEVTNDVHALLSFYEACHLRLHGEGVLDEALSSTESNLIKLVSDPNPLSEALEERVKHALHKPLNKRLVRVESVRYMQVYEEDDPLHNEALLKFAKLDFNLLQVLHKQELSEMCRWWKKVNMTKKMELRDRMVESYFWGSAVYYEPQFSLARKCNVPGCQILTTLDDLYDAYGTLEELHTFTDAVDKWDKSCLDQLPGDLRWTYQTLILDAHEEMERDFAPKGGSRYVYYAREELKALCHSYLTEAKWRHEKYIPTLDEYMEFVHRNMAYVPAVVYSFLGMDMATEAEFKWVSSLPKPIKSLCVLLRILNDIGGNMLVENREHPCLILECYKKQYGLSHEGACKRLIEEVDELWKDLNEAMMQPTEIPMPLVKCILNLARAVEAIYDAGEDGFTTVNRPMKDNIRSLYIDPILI
The assay can be described thus: malachite green phosphate assay coupled to inorganic diphosphatase. Type of assay: biochemical. Particulars: 20 mM HEPES pH 8.0, 10 mM MgCl2, 30 °C, 0.1 µM enzyme, 2–30 µM FPP; read-out: Km app.

Assay [2] addresses T2, PmSTS_Δ24 (Persicaria minor, UniProt I6XZ73, K266E, form not given).
T2 construct: N-terminal 24 residues removed from the 562-residue protein; N-terminal His6 tag (pET28b), no cleavage told; E. coli BL21 (DE3); PCR primer codes for Met-AGFKPS start; monomer stated for the full-length enzyme
The assay can be described thus: GC-MS product analysis after hexane extraction. Particulars: overnight incubation; product beta-sesquiphellandrene. Type of assay: biochemical.

T2 sequence (I6XZ73 entry or part of it K266E, form open): as the sequence (I6XZ73 entry or part of it, stated change not applied) above, with K242E counted along it

As for `CC(C)=CCC/C(C)=C/CC/C(C)=C/CO[P@@](=O)(O)OP(=O)(O)O` (stereo in doubt) [farnesyl diphosphate], the Km (usually the concentration of substrate that gives half-maximal velocity) in assay [1] amounted to 10.2 µM.

`CC(C)=CCC/C(C)=C/CC/C(C)=C/COP(=O)(O)OP(=O)(O)O` [farnesyl diphosphate]: the “GC-MS product analysis after hexane extraction” value in assay [2] is “mutant protein K266E produced using an E. coli expression system displayed a product profile”.
